Laboratory results: EP0118867A2, “Substituted 4,10-dihydro-10-oxothieno benzoxepins, a method of preparing the same and intermediate thereof and their use as medicaments” (HOECHST-ROUSSEL PHARMACEUTICALS INCORPORATED, priority 1983, dated 1984)
Like-named read-outs stand apart in the source and are kept apart here.

Tests used:
[1] = tested on: carrageenin induced rat paw edema; test: carrageenin induced rat paw edema anti-inflammatory assay; format: in vivo; conditions: for inhibition at 20 mg/kg: read-out: Time Response at 20 mg/kg % Inhibition; for ED50: po; for inhibition at 25 mg/kg: read-out: Time Response at 25 mg/kg % Inhibition
Description: The compounds of the present invention are useful as anti-inflammatory agents due to their ability to suppress inflammation in mammals. […] Exptl. Biol. Med., III 544 (1962), J. Pharmacol. Exp. 141 […]] .

[2] = tested on: 2-phenyl-1,4-benzoquinone-induced writhing; test: 2-phenyl-1,4-benzoquinone-induced writhing test (analgesia); format: in vivo, mice; conditions: Mus musculus, po
Description: Compounds of the present invention are also useful as analgesic agents due to their ability to alleviate pain in mammals. […] Exptl. Biol. Med., 95, 729 (1957)].

[3] = pretreatment 6 hrs, read-out: ED50
[4] = analgesic data, read-out: ED50 (p.o.)

CC1(C)OCC(COC(=O)CCCc2ccc3c(c2)C(=O)c2sccc2CO3)O1 (racemic) [(±)[2,2-Dimethyl-1,3-dioxolan-4-yl]methyl 4-[4,10-dihydro-10-oxothieno[3,2-c][1]benzoxepin-8-yl]butyrate]
inhibition at 20 mg/kg ([1]; pretreatment time 2 hrs.): 20%
inhibition at 20 mg/kg ([1]; pretreatment time 6 hrs): 61%
inhibition at 20 mg/kg ([1]; pretreatment time 18 hrs): 32%
inhibition at 20 mg/kg ([1]; pretreatment time 24 hrs): 41%
ED50 [1, 3]: 14.5 mg/kg
ED50 [2, 4]: 11.2 mg/kg

O=C(O)CCCc1ccc2c(c1)C(=O)c1sccc1CO2 [4-(4,10-dihydro-10-oxothieno[3,2-c][1]benzoxepin-8-yl)-butyric acid]
inhibition at 25 mg/kg ([1]; pretreatment time 0.5 hr.): 49%
inhibition at 25 mg/kg ([1]; pretreatment time 1 hr): 52%
inhibition at 25 mg/kg ([1]; pretreatment time 2 hrs.): 79%
inhibition at 25 mg/kg ([1]; pretreatment time 3 hrs): 94%
inhibition at 25 mg/kg ([1]; pretreatment time 4 hrs): 95%
inhibition at 25 mg/kg ([1]; pretreatment time 6 hrs): 67%
inhibition at 25 mg/kg ([1]; pretreatment time 8 hrs): 47%
ED50 ([1]; 1 h, p.o., pretreatment 60 min, read-out: ED50): 77.9 mg/kg

O=C(CCCc1ccc2c(c1)C(=O)c1sccc1CO2)OCC(O)CO (racemic) [1-[(4,10-Dihydro-10-oxothieno[3,2-c][1]-benzoxepin-8-yl)-4-butyryl] glyceride]
ED50 [2, 4]: 9.4 mg/kg

CCOC(=O)CCCc1ccc2c(c1)C(=O)c1sccc1CO2 [Ethyl 4-[4,10-dihydro-10-oxothieno[3,2-c][1]benzoxepin-8-yl]butyrate]
inhibition at 20 mg/kg ([1]; pretreatment time 2 hrs.): 40%
inhibition at 20 mg/kg ([1]; pretreatment time 6 hrs): 48%
inhibition at 20 mg/kg ([1]; pretreatment time 18 hrs): 15%
inhibition at 20 mg/kg ([1]; pretreatment time 24 hrs): 22%
ED50 [2, 4]: 8.2 mg/kg

CC(C)OC(=O)CCCc1ccc2c(c1)C(=O)c1sccc1CO2 [4-(4,10-Dihydro-10-oxothieno[3,2-c][1]benzoxepin-8-yl)-butyric acid isopropyl ester]
inhibition at 20 mg/kg ([1]; pretreatment time 2 hrs.): 31%
inhibition at 20 mg/kg ([1]; pretreatment time 6 hrs): 71%
inhibition at 20 mg/kg ([1]; pretreatment time 18 hrs): 57%
inhibition at 20 mg/kg ([1]; pretreatment time 24 hrs): 26%
ED50 ([1]; pretreatment 2 hrs, estimated, read-out: Estimated ED50): 21.8 mg/kg
ED50 [2, 4]: 8.5 mg/kg

CC1=C(CC(=O)O)c2cc(F)ccc2/C1=C\c1ccc([S+](C)[O-])cc1 (stereo not shown) [sulindac, reference compound]
ED50 ([1]; in a similar test, read-out: anti-inflammatory ED50): 10.7 mg/kg
ED50 ([2]; in a similar test, read-out: analgesic ED50): 6.2 mg/kg

CC(CCC(=O)O)c1ccc2c(c1)C(=O)c1sccc1CO2 (racemic) [(±)-4-(4,10-Dihydro-10-oxothieno[3,2-c][1]benzoxepin-8-yl)pentanoic acid]
inhibition at 20 mg/kg ([1]; pretreatment time 1 hr.): 25%
inhibition at 20 mg/kg ([1]; pretreatment time 2 hrs.): 23%
inhibition at 20 mg/kg ([1]; pretreatment time 4 hrs): 28%

CC(C)(C)OC(=O)CCCc1ccc2c(c1)C(=O)c1sccc1CO2 [t-Butyl 4-[4,10-dihydro-10-oxothieno-[3,2-c][1]benzoxepin-8-yl]butyrate]
inhibition at 20 mg/kg ([1]; pretreatment time 1 hr.): 42%
inhibition at 20 mg/kg ([1]; pretreatment time 2 hrs.): 49%
inhibition at 20 mg/kg ([1]; pretreatment time 4 hrs): 43%

COC(=O)CCCc1ccc2c(c1)C(=O)c1sccc1CO2 [4-(4,10-Dihydro-10-oxothieno[3,2-c][1]benzoxepin-8-yl)-butyric acid methyl ester]
inhibition at 20 mg/kg ([1]; pretreatment time 2 hrs.): 24%
inhibition at 20 mg/kg ([1]; pretreatment time 6 hrs): 54%
inhibition at 20 mg/kg ([1]; pretreatment time 8 hrs): 62%
inhibition at 20 mg/kg ([1]; pretreatment time 24 hrs): 16%
ED50 [1, 3]: 10.3 mg/kg
ED50 [2, 4]: 10.8 mg/kg
